Article PMC10354012, “Cloxyquin activates hTRESK by allosteric modulation of the selectivity filter” (Communications Biology, 2023)

Target: T1, hTRESK (TWIK-related spinal cord K+ channel, K2P18.1) (Homo sapiens, UniProt Q7Z418)
T1 construct: gene KCNK18; homodimeric hTRESK WT expressed in Xenopus laevis oocytes
T1 sequence (Q7Z418 1-384): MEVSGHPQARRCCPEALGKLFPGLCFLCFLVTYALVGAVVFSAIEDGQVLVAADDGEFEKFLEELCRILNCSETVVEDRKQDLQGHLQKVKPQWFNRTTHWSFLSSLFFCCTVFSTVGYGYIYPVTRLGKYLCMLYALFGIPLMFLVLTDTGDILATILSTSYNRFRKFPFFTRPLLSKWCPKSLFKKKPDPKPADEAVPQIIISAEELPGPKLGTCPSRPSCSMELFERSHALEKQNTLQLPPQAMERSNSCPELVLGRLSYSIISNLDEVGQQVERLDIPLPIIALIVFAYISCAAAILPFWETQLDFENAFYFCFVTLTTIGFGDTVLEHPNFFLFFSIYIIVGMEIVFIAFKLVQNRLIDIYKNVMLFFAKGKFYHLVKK
Test: TEVC dose-response in Xenopus oocytes, supported by alanine scan
Format: cell-based

SMILES: Oc1ccc(Cl)c2cccnc12 [clx, 5-chloro-8-hydroxyquinoline]
- EC50: 64 ± 11 µM
